# Laboratory results taken from patent US20010018065A1, “Compounds and methods for the treatment of bacterial dysentery using antibiotics and toxin binding oligosaccharide compositions” (priority 1998, published 2001).
# Tested on: E. coli ATCC 25922
# Experiment: Minimum inhibitory concentration (NCCLS M7-A2) for reference strain
# Assay type: cell-based
# Conditions: reference strain ATCC #25922; for MIC: Escherichia coli, ATCC25922
SMILES,MIC,Minimum Inhibitory Concentration
C=CC1=C(C(=O)O)N2C(=O)[C@@H](NC(=O)/C(=N\OCC(=O)O)c3csc(N)n3)[C@H]2SC1 [Cefixime],0.96 µg/mL,
O=C(O)c1cn(C2CC2)c2cc(N3CCNCC3)c(F)cc2c1=O [Ciprofloxacin],0.0384 µg/mL,
CO[C@@]12[C@H](COC(N)=O)C3=C(C(=O)C(C)=C(N)C3=O)N1C[C@@H]1N[C@@H]12 [Mitomycin-C],,9.6 µg/mL
CN(C)[C@@H]1C(O)=C(C(N)=O)C(=O)[C@@]2(O)C(O)=C3C(=O)c4c(O)cccc4[C@@](C)(O)[C@H]3C[C@@H]12 [Tetracycline],1.92 µg/mL,
